# Laboratory results taken from US8859541B2, “6-alkynylpyridines” (Boehringer Ingelheim International GmbH, priority 2012, dated 2014).
# Tests used:
# XIAP BIR3 = molecular target: T1, XIAP BIR3 (Homo sapiens, UniProt P98170); assay: XIAP BIR3 binding assay (DELFIA), displacement of SMAC peptide; details: GST-fusion BIR3 domain (aa 241 to 356) 10 nM, SMAC peptide 10 nM; activity of the (S)-isomers
# T1 construct: covering amino acids 241 to 356; XIAP BIR3; made in house; host or cells: E. coli
# In short: (§1)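 Each BIR3 domain (10 nM) incubated with biotinylated N-terminal SMAC peptide (10 nM) and compound for 1 h at room temp in Tris/NaCl buffer with BSA, DTT and Triton X-100. Captured on streptavidin plates; bound BIR3 detected by Eu-labelled anti-GST time-resolved fluorescence, giving IC50 values.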
# cIAP1 BIR3 = molecular target: T2, cIAP1 BIR3 (Homo sapiens, UniProt Q13490); assay: cIAP1 BIR3 binding assay (DELFIA), displacement of SMAC peptide; details: GST-fusion BIR3 domain (aa 256 to 363) 10 nM, SMAC peptide 10 nM; activity of the (S)-isomers
# T2 construct: covering amino acids 256 to 363; cIAP1 BIR3; made in house; host or cells: E. coli
# T2 sequence (Q13490 256-363): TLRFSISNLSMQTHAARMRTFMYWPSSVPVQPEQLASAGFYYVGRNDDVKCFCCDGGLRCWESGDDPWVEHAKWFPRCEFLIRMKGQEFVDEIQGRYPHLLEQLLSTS
# In short: as §1
# T1 sequence (P98170 241-356): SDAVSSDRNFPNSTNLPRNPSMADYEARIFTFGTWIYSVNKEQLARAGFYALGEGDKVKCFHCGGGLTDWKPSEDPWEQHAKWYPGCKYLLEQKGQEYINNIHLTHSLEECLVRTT
Structure (SMILES),IC50 (XIAP BIR3) [nM],IC50 (cIAP1 BIR3) [nM]
"CNC(C)C(=O)Nc1ccc(-c2c(-c3ccncc3)nc3cc(C)ccn23)c(C#Cc2ccccc2)n1 (stereo not shown) [Example 185, 2-(methylamino)-N-[5-(7-methyl-2-pyridin-4-ylimidazo[1,2-a]-pyridin-3-yl)-6-(2-phenyl-ethynyl)pyridin-2-yl]propanamide]",16,1
"CNC(C)C(=O)Nc1ccc(-c2sc(C)nc2C)c(C#Cc2ccccc2)n1 (stereo not shown) [Example 186, N-[5-(2,4-dimethyl-1,3-thiazol-5-yl)-6-(2-phenylethynyl)pyridin-2-yl]-2-(methylamino)propanamide]",151,16
"CNC(C)C(=O)Nc1ccc(-c2ccc3ncn(C)c(=O)c3c2)c(C#Cc2ccccc2)n1 (stereo not shown) [Example 187, 2-(methylamino)-N-[5-(3-methyl-4-oxoquinazolin-6-yl)-6-(2-phenylethynyl)pyridin-2-yl]-propanamide]",49,9
"CNC(C)C(=O)Nc1ccc(-c2cnn(C)c2C)c(C#Cc2ccccc2)n1 (stereo not shown) [Example 189, N-[5-(1,5-dimethylpyrazol-4-yl)-6-(2-phenylethynyl)pyridin-2-yl]-2-(methylamino)propanamide]",87,30
"CNC(C)C(=O)Nc1ccc(-c2cnc(N3CCN(C)CC3)nc2)c(C#Cc2ccccc2)n1 (stereo not shown) [Example 191, 2-(methylamino)-N-[5-[2-(4-methylpiperazin-1-yl)pyrimidin-5-yl]-6-(2-phenylethynyl)pyridin-2-yl]propanamide]",102,22
"CNC(C)C(=O)Nc1ccc(-c2cnc(-n3ccnc3)nc2)c(C#Cc2ccccc2)n1 (stereo not shown) [Example 192, N-[5-(2-imidazol-1-ylpyrimidin-5-yl)-6-(2-phenylethynyl)pyridin-2-yl]-2-(methylamino)propan-amide]",76,22
"CNC(C)C(=O)Nc1ccc(-c2cnc(C(=O)OC)nc2)c(C#Cc2ccccc2)n1 (stereo not shown) [Example 194, methyl 5-[6-[[2-(methylamino)-propanoyl]amino]-2-(2-phenyl-ethynyl)pyridin-3-yl]pyrimidine-2-carboxylate]",102,23
"CNC(C)C(=O)Nc1ccc(-c2c(C)ncn2C)c(C#Cc2ccccc2)n1 (stereo not shown) [Example 195, N-[5-(3,5-dimethylimidazol-4-yl)-6-(2-phenylethynyl)pyridin-2-yl]-2-(methylamino)propanamide]",269,4
"CNC(C)C(=O)Nc1cc(C(F)(F)F)cc(C#Cc2ccccc2)n1 (stereo not shown) [Example 198, 2-(methylamino)-N-[6-(2-phenylethynyl)-4-(trifluoromethyl)pyridin-2-yl]propanamide]",10500,4930
"CC(N)C(=O)Nc1cc2ccccc2c(C#Cc2ccsc2)n1 (stereo not shown) [Example 203, 2-amino-N-[1-(2-thiophen-3-ylethynyl)isoquinolin-3-yl]propanamide]",760,251
"CC(N)C(=O)Nc1cc2ccccc2c(C#Cc2ccccc2)n1 (stereo not shown) [Example 204, 2-amino-N-[1-(2-phenyl-ethynyl)isoquinolin-3-yl]-propanamide]",703,430
"CC(N)C(=O)Nc1cc2ccccc2c(C#Cc2ccccn2)n1 (stereo not shown) [Example 206, 2-amino-N-[1-(2-pyridin-2-ylethynyl)isoquinolin-3-yl]-propanamide]",3620,880
"CC(N)C(=O)Nc1cc2ccccc2c(C#Cc2cccs2)n1 (stereo not shown) [Example 208, 2-amino-N-[1-(2-thiophen-2-ylethynyl)isoquinolin-3-yl]-propanamide]",467,255
"CC(N)C(=O)Nc1cccc(C#Cc2cccc(C(=O)N3CCOCC3)c2)n1 (stereo not shown) [Example 213, 2-amino-N-[6-[2-[3-(morpholine-4-carbonyl)-phenyl]ethynyl]pyridin-2-yl]propanamide]",9950,2120
"CC(N)C(=O)Nc1cccc(C#Cc2cccnc2)n1 (stereo not shown) [Example 215, 2-amino-N-[6-(2-pyridin-3-ylethynyl)pyridin-2-yl]propanamide]",9700,985
"CC(N)C(=O)Nc1cccc(C#Cc2cccs2)n1 (stereo not shown) [Example 217, 2-amino-N-[6-(2-thiophen-2-ylethynyl)pyridin-2-yl]propanamide]",895,206
"COC(=O)c1cccc(C#Cc2cccc(NC(=O)C(C)N)n2)c1 (stereo not shown) [Example 223, methyl 3-[2-[6-[[2-aminopropanoyl]amino]pyridin-2-yl]ethynyl]benzoate]",2460,2620
"CC(N)C(=O)Nc1cc2ccccc2c(C#Cc2cscn2)n1 (stereo not shown) [Example 226, 2-amino-N-[1-[2-(1,3-thiazol-4-yl)ethynyl]isoquinolin-3-yl]propanamide]",1200,332
"Cc1cc(C)cc(C#Cc2nc(NC(=O)C(C)N)cc3ccccc23)c1 (stereo not shown) [Example 228, 2-amino-N-[1-[2-(3,5-dimethyl-phenyl)ethynyl]isoquinolin-3-yl]propanamide]",1920,1470
"CC(N)C(=O)Nc1cc2ccccc2c(C#Cc2cc(F)cc(F)c2)n1 (stereo not shown) [Example 229, 2-amino-N-[1-[2-(3,5-difluorophenyl)ethynyl]-isoquinolin-3-yl]propanamide]",2420,589
"Cc1ccccc1C#Cc1cccc(NC(=O)C(C)N)n1 (stereo not shown) [Example 232, 2-amino-N-[6-[2-(2-methylphenyl)ethynyl]pyridin-2-yl]propanamide]",1250,672
"CC(N)C(=O)Nc1cccc(C#Cc2ccc3cc[nH]c3c2)n1 (stereo not shown) [Example 234, 2-amino-N-[6-[2-(1H-indol-6-yl)ethynyl]pyridin-2-yl]propanamide]",2730,1230
"CC(N)C(=O)Nc1cccc(C#Cc2ccoc2)n1 (stereo not shown) [Example 240, 2-amino-N-[6-[2-(furan-3-yl)ethynyl]pyridin-2-yl]propanamide]",3020,1340
